Results as given in ChEMBL document CHEMBL5303573, “Mapping human microbiome drug metabolism by gut bacteria and their genes” (Nature, 2019).

Tests used:
[1] = The drug is tested on Blautia luti strain: DSM14534 for biotransformation. The drug concentrations were measured before and after a 12-h incubation by liquid-chromatography-coupled mass spectrometry (LC–MS); type: ADME; parameters: dose 2 uM, timepoint 0 vs 12 hours; settings: 2 µM
[2] = The drug is tested on Bacteroides vulgatus strain: ATCC8482 for biotransformation. The drug concentrations were measured before and after a 12-h incubation by liquid-chromatography-coupled mass spectrometry (LC–MS); settings: phocaeicola vulgatus, 2 µM
[3] = The drug is tested on Bacteroides pectinophilus strain: ATCC43243 for biotransformation. The drug concentrations were measured before and after a 12-h incubation by liquid-chromatography-coupled mass spectrometry (LC–MS); settings: 2 µM
[4] = The drug is tested on Coprococcus comes strain: ATCC27758 for biotransformation. The drug concentrations were measured before and after a 12-h incubation by liquid-chromatography-coupled mass spectrometry (LC–MS); type: ADME; parameters: dose 2 uM, timepoint 0 vs 12 hours; settings: 2 µM
[5] = The drug is tested on Blautia hansenii strain: DSM20583 for biotransformation. The drug concentrations were measured before and after a 12-h incubation by liquid-chromatography-coupled mass spectrometry (LC–MS); settings: 2 µM
[6] = bacteroides stercoris, 12 h, 2 µM
Description: The drug is tested on Bacteroides stercoris strain: ATCC43183 for biotransformation. The drug concentrations were measured before and after a 12-h incubation by liquid-chromatography-coupled mass spectrometry (LC–MS)

[7] = bacteroides fragilis, 12 h, 2 µM
Description: The drug is tested on Bacteroides fragilis strain: DS-208 for biotransformation. The drug concentrations were measured before and after a 12-h incubation by liquid-chromatography-coupled mass spectrometry (LC–MS)

[8] = The drug is tested on Clostridium scindens strain: ATCC35704 for biotransformation. The drug concentrations were measured before and after a 12-h incubation by liquid-chromatography-coupled mass spectrometry (LC–MS); settings: 2 µM
[9] = The drug is tested on Providencia stuartii strain: ATCC25827 for biotransformation. The drug concentrations were measured before and after a 12-h incubation by liquid-chromatography-coupled mass spectrometry (LC–MS); settings: 2 µM
[10] = bacteroides fragilis, 12 h, 2 µM; remark: listed apart in the source
Description: The drug is tested on Bacteroides fragilis strain: NCTC 9343 for biotransformation. The drug concentrations were measured before and after a 12-h incubation by liquid-chromatography-coupled mass spectrometry (LC–MS)

[11] = The drug is tested on Bacteroides uniformis strain: ATCC8492 for biotransformation. The drug concentrations were measured before and after a 12-h incubation by liquid-chromatography-coupled mass spectrometry (LC–MS); settings: 2 µM
[12] = The drug is tested on Eubacterium ventriosum strain: ATCC27560 for biotransformation. The drug concentrations were measured before and after a 12-h incubation by liquid-chromatography-coupled mass spectrometry (LC–MS); type: ADME; parameters: dose 2 uM, timepoint 0 vs 12 hours; settings: 2 µM
[13] = The drug is tested on Bacteroides coprophilus strain: DSM18228 for biotransformation. The drug concentrations were measured before and after a 12-h incubation by liquid-chromatography-coupled mass spectrometry (LC–MS); settings: 2 µM
[14] = The drug is tested on Escherichia coli strain: BW25113 for biotransformation. The drug concentrations were measured before and after a 12-h incubation by liquid-chromatography-coupled mass spectrometry (LC–MS); settings: 2 µM
[15] = The drug is tested on Ruminococcus gnavus strain: ATCC29149 for biotransformation. The drug concentrations were measured before and after a 12-h incubation by liquid-chromatography-coupled mass spectrometry (LC–MS); settings: mediterraneibacter gnavus, 2 µM
[16] = The drug is tested on Bacteroides fragilis strain: ATCC43859 for biotransformation. The drug concentrations were measured before and after a 12-h incubation by liquid-chromatography-coupled mass spectrometry (LC–MS); settings: 2 µM
[17] = The drug is tested on Odoribacter splanchnicus strain: fecal isolate for biotransformation. The drug concentrations were measured before and after a 12-h incubation by liquid-chromatography-coupled mass spectrometry (LC–MS); settings: 2 µM
[18] = The drug is tested on Providencia rettgeri strain: DSM1131 for biotransformation. The drug concentrations were measured before and after a 12-h incubation by liquid-chromatography-coupled mass spectrometry (LC–MS); type: ADME; parameters: dose 2 uM, timepoint 0 vs 12 hours; settings: 2 µM
[19] = The drug is tested on Bifidobacterium ruminantium strain: fecal isolate for biotransformation. The drug concentrations were measured before and after a 12-h incubation by liquid-chromatography-coupled mass spectrometry (LC–MS); settings: 2 µM
[20] = The drug is tested on Anaerotruncus colihominis strain: DSM17241 for biotransformation. The drug concentrations were measured before and after a 12-h incubation by liquid-chromatography-coupled mass spectrometry (LC–MS); settings: 2 µM
[21] = The drug is tested on Bacteroides fragilis strain: HMW610 for biotransformation. The drug concentrations were measured before and after a 12-h incubation by liquid-chromatography-coupled mass spectrometry (LC–MS); settings: 2 µM
[22] = The drug is tested on Bacteroides xylanisolvens strain: DSM18836 for biotransformation. The drug concentrations were measured before and after a 12-h incubation by liquid-chromatography-coupled mass spectrometry (LC–MS); settings: 2 µM
[23] = The drug is tested on Collinsella aerofaciens strain: ATCC25986 for biotransformation. The drug concentrations were measured before and after a 12-h incubation by liquid-chromatography-coupled mass spectrometry (LC–MS); settings: 2 µM
[24] = The drug is tested on Eubacterium hallii strain: DSM3353 for biotransformation. The drug concentrations were measured before and after a 12-h incubation by liquid-chromatography-coupled mass spectrometry (LC–MS); settings: anaerobutyricum hallii, 2 µM
[25] = segatella copri, 12 h, 2 µM
Description: The drug is tested on Prevotella copri strain: DSM18205 for biotransformation. The drug concentrations were measured before and after a 12-h incubation by liquid-chromatography-coupled mass spectrometry (LC–MS)

[26] = The drug is tested on Ruminococcus lactaris strain: ATCC29176 for biotransformation. The drug concentrations were measured before and after a 12-h incubation by liquid-chromatography-coupled mass spectrometry (LC–MS); settings: 2 µM
[27] = bacteroides fragilis, 12 h, 2 µM; remark: listed apart in the source
Description: The drug is tested on Bacteroides fragilis strain: 3397 (T10) for biotransformation. The drug concentrations were measured before and after a 12-h incubation by liquid-chromatography-coupled mass spectrometry (LC–MS)

[28] = The drug is tested on Enterococcus faecalis strain: V583 for biotransformation. The drug concentrations were measured before and after a 12-h incubation by liquid-chromatography-coupled mass spectrometry (LC–MS); settings: 2 µM
[29] = akkermansia muciniphila, 12 h, 2 µM
Description: The drug is tested on Akkermansia muciniphila strain: ATCC BAA-835 for biotransformation. The drug concentrations were measured before and after a 12-h incubation by liquid-chromatography-coupled mass spectrometry (LC–MS)

[30] = bacteroides intestinalis, 12 h, 2 µM
Description: The drug is tested on Bacteroides intestinalis strain: DSM17393 for biotransformation. The drug concentrations were measured before and after a 12-h incubation by liquid-chromatography-coupled mass spectrometry (LC–MS)

[31] = The drug is tested on Bacteroides fragilis strain: HMW615 for biotransformation. The drug concentrations were measured before and after a 12-h incubation by liquid-chromatography-coupled mass spectrometry (LC–MS); settings: 2 µM
[32] = The drug is tested on Bifidobacterium breve strain: DSM20213 for biotransformation. The drug concentrations were measured before and after a 12-h incubation by liquid-chromatography-coupled mass spectrometry (LC–MS); settings: 2 µM
[33] = The drug is tested on Clostridium symbiosum strain: ATCC14940 for biotransformation. The drug concentrations were measured before and after a 12-h incubation by liquid-chromatography-coupled mass spectrometry (LC–MS); settings: 2 µM
[34] = The drug is tested on Alistipes indistinctus strain: DSM22520 for biotransformation. The drug concentrations were measured before and after a 12-h incubation by liquid-chromatography-coupled mass spectrometry (LC–MS); settings: 2 µM
[35] = The drug is tested on Anaerococcus hydrogenalis strain: DSM7454 for biotransformation. The drug concentrations were measured before and after a 12-h incubation by liquid-chromatography-coupled mass spectrometry (LC–MS); settings: 2 µM
[36] = The drug is tested on Ruminococcus torques strain: ATCC27756 for biotransformation. The drug concentrations were measured before and after a 12-h incubation by liquid-chromatography-coupled mass spectrometry (LC–MS); type: ADME; parameters: dose 2 uM, timepoint 0 vs 12 hours; settings: 2 µM
[37] = The drug is tested on Clostridium sporogenes strain: ATCC15579 for biotransformation. The drug concentrations were measured before and after a 12-h incubation by liquid-chromatography-coupled mass spectrometry (LC–MS); settings: 2 µM
[38] = The drug is tested on Bacteroides dorei strain: DSM17855 for biotransformation. The drug concentrations were measured before and after a 12-h incubation by liquid-chromatography-coupled mass spectrometry (LC–MS); settings: phocaeicola dorei, 2 µM
[39] = The drug is tested on Dorea formicigenerans strain: ATCC27755 for biotransformation. The drug concentrations were measured before and after a 12-h incubation by liquid-chromatography-coupled mass spectrometry (LC–MS); settings: 2 µM
[40] = The drug is tested on Bacteroides ovatus strain: ATCC8483 for biotransformation. The drug concentrations were measured before and after a 12-h incubation by liquid-chromatography-coupled mass spectrometry (LC–MS); settings: 2 µM
[41] = The drug is tested on Clostridium ramosum strain: DSM1402 for biotransformation. The drug concentrations were measured before and after a 12-h incubation by liquid-chromatography-coupled mass spectrometry (LC–MS); settings: thomasclavelia ramosa, 2 µM
[42] = parabacteroides distasonis, 12 h, 2 µM
Description: The drug is tested on Parabacteroides distasonis strain: ATCC8503 for biotransformation. The drug concentrations were measured before and after a 12-h incubation by liquid-chromatography-coupled mass spectrometry (LC–MS)

[43] = The drug is tested on Clostridium sp. strain: fecal isolate for biotransformation. The drug concentrations were measured before and after a 12-h incubation by liquid-chromatography-coupled mass spectrometry (LC–MS); settings: 2 µM
[44] = bacteroides eggerthii, 12 h, 2 µM
Description: The drug is tested on Bacteroides eggerthii strain: DSM20697 for biotransformation. The drug concentrations were measured before and after a 12-h incubation by liquid-chromatography-coupled mass spectrometry (LC–MS)

CCN(C(C)=O)c1cccc(-c2ccnc3c(C#N)cnn23)c1 [ZALEPLON]
Bacterial Biotransformation [1]: Compound NOT metabolized | Bacterial Biotransformation [2]: Compound metabolized | Bacterial Biotransformation [3]: Compound NOT metabolized | Bacterial Biotransformation [4]: Compound NOT metabolized | Bacterial Biotransformation [5]: Compound metabolized | Bacterial Biotransformation [6]: Compound NOT metabolized | Bacterial Biotransformation [7]: Compound NOT metabolized | Bacterial Biotransformation [8]: Compound NOT metabolized | Bacterial Biotransformation [9]: Compound NOT metabolized | Bacterial Biotransformation [10]: Compound metabolized | Bacterial Biotransformation [11]: Compound metabolized | Bacterial Biotransformation [12]: Compound NOT metabolized | Bacterial Biotransformation [13]: Compound NOT metabolized | Bacterial Biotransformation [14]: Compound NOT metabolized | Bacterial Biotransformation [15]: Compound NOT metabolized | Bacterial Biotransformation [16]: Compound metabolized | Bacterial Biotransformation [17]: Compound NOT metabolized | Bacterial Biotransformation [18]: Compound NOT metabolized | Bacterial Biotransformation [19]: Compound NOT metabolized | Bacterial Biotransformation [20]: Compound NOT metabolized | Bacterial Biotransformation [21]: Compound metabolized | Bacterial Biotransformation [22]: Compound metabolized | Bacterial Biotransformation [23]: Compound NOT metabolized | Bacterial Biotransformation [24]: Compound NOT metabolized | Bacterial Biotransformation [25]: Compound NOT metabolized | Bacterial Biotransformation [26]: Compound NOT metabolized | Bacterial Biotransformation [27]: Compound NOT metabolized | Bacterial Biotransformation [28]: Compound NOT metabolized | Bacterial Biotransformation [29]: Compound NOT metabolized | Bacterial Biotransformation [30]: Compound NOT metabolized | Bacterial Biotransformation [31]: Compound metabolized | Bacterial Biotransformation [32]: Compound NOT metabolized | Bacterial Biotransformation [33]: Compound NOT metabolized | Bacterial Biotransformation [34]: Compound NOT metabolized | Bacterial Biotransformation [35]: Compound NOT metabolized | Bacterial Biotransformation [36]: Compound NOT metabolized | Bacterial Biotransformation [37]: Compound NOT metabolized | Bacterial Biotransformation [38]: Compound metabolized | Bacterial Biotransformation [39]: Compound NOT metabolized | Bacterial Biotransformation [40]: Compound NOT metabolized | Bacterial Biotransformation [41]: Compound NOT metabolized | Bacterial Biotransformation [42]: Compound NOT metabolized | Bacterial Biotransformation [43]: Compound metabolized | Bacterial Biotransformation [44]: Compound NOT metabolized
